Columns and labels:
[1] = system: advanced hormone refractory prostate cancer patients; conditions: cited from earlier work
[2] = system: ovarian carcinoma patients; conditions: cited from earlier work
[3] = more than 25 clinical trials; cited from earlier work
[4] = system: healthy human volunteers; conditions: 8 subjects with one single s.c. administration versus 4 subjects receiving placebo; cited from earlier work
[5] = system: patient tumor cell lines (MEL, GBM, ccRCC); experiment: IFNγ stimulation of patient tumor cell lines, HLA-bound peptides by IP/MS; type: cell-based, human; conditions: IFNγ-matched samples, 2000 Unit/ml IFNg for 3 days

C[C@]12CC[C@@H]3c4ccc(OC(=O)N(CCCl)CCCl)cc4CC[C@H]3[C@@H]1CC[C@@H]2O [estramustine]
patients with >50% decrease in serum prostate specific antigen (PSA) [1]: 54%

Polyinosinic-Polycytidylic Acid-poly-L-lysine Carboxymethylcellulose [poly-ICLC]
generation of NY-ESO-1-specific CD4+ and CD8+ T-cell and antibody responses ([2]; 1.4 mg poly-ICLC and Montanide added, compared to OLP alone or OLP and Montanide): markedly enhanced
patients showing induction of CD4+ and CD8+ T cell, as well as antibody responses to the peptide ([2]; poly-ICLC in combination with NY-ESO-1 peptide vaccine, in addition to Montanide, phase 1): > 90%
toxicity profile [3]: relatively benign toxicity profile
differential expression of genes versus placebo [4]: up to 212 genes

B1: IFNγ: interferon gamma (Peprotech) used to stimulate cultured tumor cells (protein, UniProt P01579 24-161, looked up)
Interferon gamma: QDPYVKEAENLKKYFNAGHSDVADNGTLFLGILKNWKEESDRKIMQSQIVSFYFKLFKNFKDDQSIQKSVETIKEDMNVKFFNSNKKKRDDFEKLTNYSVTDLNVQRKAIHELIQVMAELSPAAKTGKRKRSQMLFRG
increase in peptides derived from IFNγ-response genes post stimulation [5]: 2.4-5.6%
